Source: PubChem BioAssay AID248 (DTP/NCI, 2004)
“And” between values parts separate entries of the source, which are not always exact repeats. Identical values can stand only once. Inconclusive results and toxic doses are left out. Cut-off read from the data, not from the text of the source: active = T/C of 150% or more; inactive = T/C below 125%.

Tested on: L1210 leukemia ip in BDF1 mice, survival T/C
Assay: NCI In Vivo Anticancer Drug Screen. Data for tumor model L1210 Leukemia (intraperitoneal) in B6D2F1 (BDF1) mice
Conditions: endpoint: mean survival time, higher = longer survival
Method in brief: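 Antitumor effect is assessed in tumor-bearing animals. Survival in the compound arm is compared with a vehicle-dosed control arm and expressed as their quotient.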

[1] = dose: 100.0 mg/kg/injection, schedule: Q01DX001 (ip), vehicle: saline
[2] = dose: 200.0 mg/kg/injection, schedule: Q01DX001 (ip), vehicle: saline
[3] = dose: 400.0 mg/kg/injection, schedule: Q01DX001 (ip), vehicle: saline
[4] = dose: 100.0 mg/kg/injection, schedule: Q01DX001 (ip), vehicle: Klucel (hydroxypropylcellulose) (HPC)
[5] = dose: 200.0 mg/kg/injection, schedule: Q01DX001 (ip), vehicle: Klucel (hydroxypropylcellulose) (HPC)
[6] = dose: 400.0 mg/kg/injection, schedule: Q01DX001 (ip), vehicle: Klucel (hydroxypropylcellulose) (HPC)
[7] = dose: 75.0 mg/kg/injection, schedule: Q01DX001 (ip), vehicle: saline
[8] = dose: 150.0 mg/kg/injection, schedule: Q01DX001 (ip), vehicle: saline
[9] = dose: 300.0 mg/kg/injection, schedule: Q01DX001 (ip), vehicle: saline
[10] = dose: 25.0 mg/kg/injection, schedule: Q01DX009 (ip), vehicle: Klucel (hydroxypropylcellulose) (HPC)
[11] = dose: 50.0 mg/kg/injection, schedule: Q01DX009 (ip), vehicle: Klucel (hydroxypropylcellulose) (HPC)
[12] = dose: 100.0 mg/kg/injection, schedule: Q01DX009 (ip), vehicle: Klucel (hydroxypropylcellulose) (HPC)
[13] = dose: 100.0 mg/kg/injection, schedule: Q04DX003 (ip), vehicle: Klucel (hydroxypropylcellulose) (HPC)
[14] = dose: 200.0 mg/kg/injection, schedule: Q01DX009 (ip), vehicle: Klucel (hydroxypropylcellulose) (HPC)
[15] = dose: 200.0 mg/kg/injection, schedule: Q04DX003 (ip), vehicle: Klucel (hydroxypropylcellulose) (HPC)
[16] = dose: 400.0 mg/kg/injection, schedule: Q01DX009 (ip), vehicle: Klucel (hydroxypropylcellulose) (HPC)
[17] = dose: 400.0 mg/kg/injection, schedule: Q04DX003 (ip), vehicle: Klucel (hydroxypropylcellulose) (HPC)
[18] = dose: 25.0 mg/kg/injection, schedule: Q04DX003 (ip), vehicle: Klucel (hydroxypropylcellulose) (HPC)
[19] = dose: 50.0 mg/kg/injection, schedule: Q04DX003 (ip), vehicle: Klucel (hydroxypropylcellulose) (HPC)

Measured: T/C

O=C1NC(=S)S/C1=C/c1ccc2c(c1)OCO2
inactive: dose: 7.5 mg/kg/injection, schedule: Q01DX009 (ip), vehicle: saline with Tween-80 93 % of control | dose: 15.0 mg/kg/injection, schedule: Q01DX009 (ip), vehicle: saline with Tween-80 88 % of control | dose: 30.0 mg/kg/injection, schedule: Q01DX009 (ip), vehicle: saline with Tween-80 89 % of control

Cc1ccnc(NS(=O)(=O)c2ccc(N=Nc3ccc(O)c4ncccc34)cc2)n1
inactive: [1] 108 % of control | [2] 100 % of control | [3] 97 % of control

ClCCN(CCCl)c1ccc(C=Nc2ccc(-c3csc(Cc4ccccc4)n3)c(Cl)c2)cc1
inactive: dose: 100.0 mg/kg/injection, schedule: Q01DX001 (ip), vehicle: carboxymethylcellulose (CMC) 93 % of control | dose: 200.0 mg/kg/injection, schedule: Q01DX001 (ip), vehicle: carboxymethylcellulose (CMC) 88 % of control | dose: 400.0 mg/kg/injection, schedule: Q01DX001 (ip), vehicle: carboxymethylcellulose (CMC) 87 % of control

Clc1nc2ccccc2n2nnnc12
inactive: dose: 15.0 mg/kg/injection, schedule: Q04DX003 (ip), vehicle: saline 101 % of control | dose: 30.0 mg/kg/injection, schedule: Q04DX003 (ip), vehicle: saline 98 % of control | dose: 60.0 mg/kg/injection, schedule: Q04DX003 (ip), vehicle: saline 86 % of control

CCNC(=O)CCl
inactive: [1] 96 % of control | [2] 104 % of control

CC#CC#Cc1cccc(=O)o1
inactive: dose: 25.0 mg/kg/injection, schedule: Q04DX003 (ip), vehicle: other 90 % of control | dose: 50.0 mg/kg/injection, schedule: Q04DX003 (ip), vehicle: other 90 % of control | dose: 100.0 mg/kg/injection, schedule: Q04DX003 (ip), vehicle: other 108 % of control

CC[C@H](CC[C@@H](C)[C@H]1CC[C@H]2[C@@H]3CC=C4C[C@@H](OC(=O)CSC(CC(=O)O)C(=O)O)CC[C@]4(C)[C@H]3CC[C@]12C)C(C)C (some centres not stated)
inactive: dose: 100.0 mg/kg/injection, schedule: Q01DX001 (ip), vehicle: water 98 % of control | dose: 200.0 mg/kg/injection, schedule: Q01DX001 (ip), vehicle: water 86 % of control | dose: 400.0 mg/kg/injection, schedule: Q01DX001 (ip), vehicle: water 93 % of control

CCN(CC)C(C)(C)COC(=O)c1ccc([N+](=O)[O-])cc1
inactive: dose: 222.0 mg/kg/injection, schedule: Q01DX Z (ip), vehicle: methylcellulose (MC) 121 % of control | dose: 333.0 mg/kg/injection, schedule: Q01DX Z (ip), vehicle: methylcellulose (MC) 101 % of control | dose: 500.0 mg/kg/injection, schedule: Q01DX Z (ip), vehicle: methylcellulose (MC) 96 % of control

COc1ccc(-n2c(=O)c(N=Nc3ccccc3C)c(O)n(-c3ccccc3Cl)c2=S)cc1
inactive: [4] 107 % of control | [5] 94 % of control | [6] 102 % of control

O=C1CC2C(=O)CC1C(C(=O)O)C2C(=O)O (configuration not stated)
inactive: [7] 102 % of control | [4] 103 % of control | [8] 104 % of control | [5] 119 % of control | [9] 105 % of control | [6] 98 % of control

COc1cc(C(=Nc2ccccc2)C(=Nc2ccccc2)c2cc(OC)c(OC)c(OC)c2)cc(OC)c1OC
inactive: [10] 98 % of control | [11] 91 % of control | [12] 90 % of control | [13] 100 % of control | [14] 95 % of control and 116 % of control | [15] 97 % of control | [16] 120 % of control | [17] 96 % of control

S=C([S][Sn]([c]1ccccc1)([c]1ccccc1)[c]1ccccc1)N1CCCCC1
inactive: [13] 100 % of control | [15] 94 % of control | [17] 94 % of control

COc1ccc(NC(=O)Oc2ccc(-c3ccccc3)cc2Cl)c(OC)c1
inactive: [12] 97 % of control | [14] 101 % of control | [16] 92 % of control

O=Nc1ccc(O)cc1Cl
inactive: [4] 103 % of control and 88 % of control | [5] 117 % of control | [6] 95 % of control and 103 % of control

CC(C)(C)OC(=O)C(c1ccccc1)c1ccccc1
inactive: dose: 50.0 mg/kg/injection, schedule: Q01DX001 (ip), vehicle: saline 106 % of control | [1] 89 % of control | [2] 106 % of control | [3] 89 % of control

CCOC(=O)C(C(=O)OCC)=C(C#N)c1c[nH]c2ccccc12
inactive: [12] 103 % of control | [13] 104 % of control | [14] 96 % of control | [15] 95 % of control | [16] 92 % of control | [17] 96 % of control

COc1ccc(COC(=O)N=[N+]=[N-])cc1
inactive: dose: 12.5 mg/kg/injection, schedule: Q04DX003 (ip), vehicle: Klucel (hydroxypropylcellulose) (HPC) 112 % of control | [10] 98 % of control | [18] 110 % of control | [11] 91 % of control | [19] 105 % of control | [4] 98 % of control | [13] 105 % of control

CCO/C([O-])=C/[P+](c1ccccc1)(c1ccccc1)c1ccccc1
inactive: dose: 12.5 mg/kg/injection, schedule: Q01DX009 (ip), vehicle: Klucel (hydroxypropylcellulose) (HPC) 103 % of control | [10] 106 % of control | [18] 103 % of control | [11] 103 % of control | [19] 103 % of control | [13] 96 % of control

O=C(O)CSCCCc1ccccc1
inactive: dose: 50.0 mg/kg/injection, schedule: Q01DX009 (ip), vehicle: saline with Tween-80 101 % of control | dose: 100.0 mg/kg/injection, schedule: Q01DX009 (ip), vehicle: saline with Tween-80 95 % of control | dose: 100.0 mg/kg/injection, schedule: Q04DX003 (ip), vehicle: saline with Tween-80 102 % of control | dose: 200.0 mg/kg/injection, schedule: Q01DX009 (ip), vehicle: saline with Tween-80 101 % of control | dose: 200.0 mg/kg/injection, schedule: Q04DX003 (ip), vehicle: saline with Tween-80 102 % of control | dose: 400.0 mg/kg/injection, schedule: Q04DX003 (ip), vehicle: saline with Tween-80 102 % of control

CS(=O)(=O)NOCCCCONS(C)(=O)=O
inactive: dose: 100.0 mg/kg/injection, schedule: Q01DX001 (ip), vehicle: saline with Tween-80 103 % of control | dose: 200.0 mg/kg/injection, schedule: Q01DX001 (ip), vehicle: saline with Tween-80 91 % of control | dose: 400.0 mg/kg/injection, schedule: Q01DX001 (ip), vehicle: saline with Tween-80 92 % of control

N#CCCN(Cc1ccccc1)C(=S)Nc1ccc(C(F)(F)F)cc1
inactive: dose: 100.0 mg/kg/injection, schedule: Q04DX002 (ip), vehicle: Klucel (hydroxypropylcellulose) (HPC) 100 % of control | dose: 200.0 mg/kg/injection, schedule: Q04DX002 (ip), vehicle: Klucel (hydroxypropylcellulose) (HPC) 100 % of control | dose: 400.0 mg/kg/injection, schedule: Q04DX002 (ip), vehicle: Klucel (hydroxypropylcellulose) (HPC) 100 % of control

O=S(=O)(OCCNc1ccccc1)c1ccccc1
inactive: [7] 101 % of control | [8] 98 % of control | [9] 98 % of control
